Data reported in publication PMC5786021, “A dynamic allosteric pathway underlies Rad50 ABC ATPase function in DNA repair” (Scientific Reports, 2018).
pKi: −log10 of the molar value. Like-named read-outs stand apart in the source and are kept apart here. Each block holds one compound with its values, some of them ahead of it.

Assays:
Mre11^HLH-Rad50^NBD [1] = target: T1, Mre11^HLH-Rad50^NBD (Pyrococcus furiosus, UniProt P58301, DEL196-708); test: fluorescence polarization competition with BODIPY FL ATP; type: binding
T1 construct: Mre11 helix-loop-helix aa344-426; His and NusA-His tags removed with TEV; E. coli; monomeric without nucleotide; with DNA double-strand break repair protein Mre11

Mre11_2-Rad50^NBD2 = target: T2, Mre11_2-Rad50^NBD2 (Pyrococcus furiosus, UniProt P58301, DEL196-708); test: 2-aminopurine DNA exonuclease fluorescence; type: biochemical; conditions: 1 mM AMP-PNP, 1 mM MnCl2, 5 mM MgCl2, 50 mM Tris pH 7.5, 60 °C; allosteric via Rad50
T2 construct: about 160 kDa; E. coli; with DNA double-strand break repair protein Mre11

Mre11^HLH-Rad50^NBD [2] = target: T3, Mre11^HLH-Rad50^NBD (Pyrococcus furiosus, UniProt P58301, DEL196-708/R805E); test: fluorescence polarization competition with BODIPY FL ATP; type: binding
T3 construct: Mre11 helix-loop-helix aa344-426; His and NusA-His tags removed with TEV; E. coli; monomeric without nucleotide; with DNA double-strand break repair protein Mre11
T3 sequence (P58301 709-882 R805E, other chains not shown): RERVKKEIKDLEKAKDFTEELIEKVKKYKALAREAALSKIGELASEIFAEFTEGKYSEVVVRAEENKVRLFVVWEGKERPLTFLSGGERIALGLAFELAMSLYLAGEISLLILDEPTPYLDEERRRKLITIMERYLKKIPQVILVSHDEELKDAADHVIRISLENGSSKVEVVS
T3 sequence (P58301 1-195, stated change not applied, other chains not shown): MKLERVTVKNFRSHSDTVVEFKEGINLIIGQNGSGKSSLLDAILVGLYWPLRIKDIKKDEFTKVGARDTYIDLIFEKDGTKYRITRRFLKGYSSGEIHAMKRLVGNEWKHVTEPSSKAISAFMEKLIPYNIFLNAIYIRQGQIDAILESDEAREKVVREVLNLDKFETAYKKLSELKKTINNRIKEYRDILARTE

T1 sequence (P58301 709-882, stated change not applied, other chains not shown): as the sequence (P58301 709-882 R805E, other chains not shown) above, with E97R counted along it
T1 sequence (P58301 1-195, stated change not applied, other chains not shown): as the sequence (P58301 1-195, stated change not applied, other chains not shown) above
T2 sequence (P58301 709-882, stated change not applied): as the sequence (P58301 709-882 R805E, other chains not shown) above, with E97R counted along it
T2 sequence (P58301 1-195, stated change not applied): as the sequence (P58301 1-195, stated change not applied, other chains not shown) above

- pKi (Mre11^HLH-Rad50^NBD [1]; read-out: KI,ADP): 5.19
SMILES: Nc1ncnc2c1ncn2[C@@H]1O[C@H](COP(=O)(O)OP(=O)(O)O)[C@@H](O)[C@H]1O [ADP]

SMILES: Nc1ncnc2c1ncn2[C@@H]1O[C@H](COP(=O)(O)OP(=O)(O)NP(=O)(O)O)[C@@H](O)[C@H]1O [AMP-PNP]
- reduction in Mre11 exonuclease activity (Mre11_2-Rad50^NBD2): non-hydrolyzable ATP analog AMP-PNP resulted in a dramatic reduction in exonuclease activity

- pKi (Mre11^HLH-Rad50^NBD [1]): 5.01
- pKi (Mre11^HLH-Rad50^NBD [2]): 5.52
SMILES: Nc1ncnc2c1ncn2[C@@H]1O[C@H](COP(=O)(O)OP(=O)(O)OP(=O)(O)O)[C@@H](O)[C@H]1O [ATP]
